How the values were obtained:
[1] = tested on: STING; experiment: in vitro model of STING activation: PBMCs with ADUS100 with or without JAK-inhibitor, scRNA-seq; assay type: cell-based, human; conditions: 4 hours
From the text: Sequencing reads were demultiplexed and aligned to the human reference genome (hg38), and counted using the CellRanger Pipeline v6.0. Unfiltered RNA UMI counts were loaded into Seurat v4 for quality control, data integration and downstream analyses. Apoptotic cells and empty sequencing capsules were excluded by filtering out cells with low number of features (Filters were defined based on the batch: STING1: nFeature <300; STING2 and STING3<500; IFN-stim <750) or a mitochondrial content higher than 20%. Data from each sample were normalized using sctransform, before batch correction using Seurat's FindIntegratedAnchors, on the 3,000 most variable features. For the IFN-β dataset, for computational efficiency, integration anchors were determined with a canonical correlation analysis, using all unstimulated samples as reference. For the SAVI dataset, to avoid over-aligning samples, a reciprocal principal component analysis (PCA) was used to find integration anchors. On the resulting integrated datasets, we computed the PCA on the 3000 most variable genes, before computing a UMAP (on 20 PCs for SAVI and 30 PCs for IFN-stimulation). Community detection was performed using the graph-based modularity-optimization Louvain algorithm from Seurat's FindClusters function with a 1.2 resolution. Cell types labels were assigned to resulting clusters based on a manually curated list of marker genes as well as previously defined signatures of the PBMC subtypes.^58 Despite filtering for high quality cells, 11/34 clusters in the SAVI dataset and 7/36 in the IFN-β dataset stood out as poor quality clusters and were removed from further analysis. They represented low UMI cells, dying cells, cycling cells, doublets, or contaminants (progenitor cells, basophils, platelets or megakaryocytes). […] Transcriptomic signatures scores were calculated using Seurat's AddModuleScore function. […]
Human PBMC samples were obtained from Promocell (C-12907 promocell, lot 434Z036). […] Libraries were sequenced on a Novaseq (Illumina), with 26 cycles of read 1, 8 cycles of i7 index and 98 cycles of read 2. […]

[2] = tested on: SAVI patients; conditions: SAVI patients treated with JAK-inhibitors; cited from earlier work
[3] = tested on: T cell; conditions: cited from earlier work
[4] = PBMCs from a healthy donor, ADUS100 3 mM, vs unstimulated

SMILES | score of NF-κB activation [1, 4] | score of type I IFN response [1, 4] | STING-associated signature (21 genes) ([1]; monocytes and DCs of stimulated PBMCs) | symptoms of SAVI patients [2] | T cell proliferation [3]
Nc1ncnc2c1ncn2[C@@H]1O[C@@H]2COP(=O)([S-])O[C@@H]3[C@H](O)[C@@H](COP([O-])(=S)O[C@H]2[C@H]1O)O[C@H]3n1cnc2c(N)ncnc21.[Na+].[Na+] (some centres unmarked) [ADUS100] | increased | increased | strong increase | – | –
C[C@@H]1CCN(C(=O)CC#N)C[C@@H]1N(C)c1ncnc2[nH]ccc12 [Tofacitinib, tofacitinib] | – | – | – | partial improvements of the symptoms | inhibit T cell proliferation

Reference: patent publication US20260275412A1, “A GENE SIGNATURE FOR DIAGNOSING STIMULATOR OF INTERFERON GENES (STING)-ASSOCIATED VASCULOPATHY WITH ONSET IN INFANCY (SAVI)” (INSTITUT NATIONAL DE LA SANTÉ ET DE LA RECHERCHE MÉDICALE, priority 2023, published 2026)
